Measurements from patent US8591954B2, “Phospholipid-based inhalation system” (Next Breath, LLC, priority 2006, dated 2013).
“Also recorded” adds a separate entry of the source.

Key:
A549 cells = experiment: Migration of latex beads on A549 cell surface after application of surfactant (microgrid / semi-automated counting); type: cell-based; settings: 4.5 μm latex beads on A549 cells, CELLocate microgrid, surfactant applied directly; p<0.05, ANOVA; water control showed no migration
From the text: A particularly preferred embodiment of the present invention comprises the identification of molecules to be used in the pMDI to push the medication deeper into the lungs. For this purpose an in vitro technique to visualize and monitor migration of latex beads placed on tissue cells after application of the appropriate surfactant may be used. […] K. Fumoto, […]. […] The microgrid coverslips can be used to monitor and quantify bead movement on cell surfaces reflecting similar characteristics to tracheal and pulmonary tissues. […] The movement of latex beads may then be monitored by counting the beads before adding the surfactant and then again after allowing the surfactant to spread for a period of time (for example 10 seconds). […] The effect of pMDI-delivered surfactant, e.g., PTC, Survanta®, on latex bead movement can be determined using the above cell model. […] Beads in 220 μm^2 virtual square grids along a 220×11,000 μm lane (50 grids in total), predefined using the automated stage controller coupled to the microscope, can be counted and quantified, before (initial) and after (final) application of surfactant. Bead migration along an extended lane can then be monitored. […]

[1] = 25° C.; cited from earlier work

Row | Compound | migration of latex beads (bead count ratio Final:Initial) (A549 cells) | dielectric constant [1]
1 | Phosphatidylcholine [PTC] | significant migration of latex beads; also recorded: significantly migrate | 
2 | FC(C(F)(F)F)C(F)(F)F [HFA-227] |  | 3.94
